From patent EP0080940B1, “Derivatives of 2-phenyl-morpholine and medical compositions” (LABORATOIRE L. LAFON Société anonyme dite:, priority 1981, dated 1983) come the findings set out here.

Usually LD50 stands for the dose at which mortality reaches 50%. A lower LD50 goes with greater toxicity.

Holding throughout (assay type): in vivo
The subject of data set [1] is souris. Description: Interaction with yohimbine, temperature. As to conditions: yohimbine 0,5 mg/kg i.p. alone. Here is the method:
Des lots de 12 souris reçoivent une injection intrapéritonéale de 0,5 mg/kg de yohimbine, une demi-heure avant l'administration de CRL 40914.

Data set [2] deals with souris. Description: Interaction with yohimbine, spontaneous motility. As to conditions: yohimbine 0,5 mg/kg i.p. alone. Here is the method: Des lots de 12 souris reçoivent la yohimbine (0,5 mg/kg i.p.) et le CRL 40914 respectivement 60 et 30 min avant d'être placées en actimètre où leur motilité est enregistrée pendant une demi-heure.
In data set [3] the test system is souris. Description: Asphyxic anoxia (gallamine triethiodide). As to conditions: 8 mg/kg, 32 mg/kg et 128 mg/kg, triiodoéthylate de gallamine. Here is the method: Des lots de 10 souris reçoivent le CRL 40914 une demi-heure avant l'administration intrapéritonéale de 32 mg/kg de triiodoéthylate de gallamine (agent curarisant de référence).
(§1) On a résumé ci-après les résultats des essais qui ont été entrepris chez l'animal avec le CRL 40915, les modalités opératoires étant celles données ci-dessus pour le CR L 40914.

Data set [4] relates to souris. The data set can be described thus: Interaction with reserpine. As to conditions: 128 mg/kg. Here is the method:
Quatre heures après l'injection intrapéritonéale de 2,5 mg/kg de réserpine, des lots de 6 souris reçoivent le CRL 40914.
as §1

Data set [5] deals with souris. The data set can be described thus: Interaction with apomorphine, mouse. Here is the method:
Des lots de 6 souris reçoivent le CRL 40914 une demi-heure avant l'injection sous-cutanée d'apomorphine, à la dose de 1 mg/kg ou 16 mg/kg.
as §1

The subject of data set [6] is rats. The data set can be described thus: Interaction with apomorphine, rat. As to conditions: rat. The protocol:
Le CRL 40914 est administré aux rats une demi-heure avant l'injection sous-cutanée de 0,5 mg/kg d'apomorphine.
as §1

Data set [7] concerns souris. The data set can be described thus: Interaction with oxotremorine. The protocol: Le CRL 40914 est administré à des lots de 6 souris une demi-heure avant l'injection intrapéritonéale de 0,5 mg/kg d'oxotrémorine.
as §1

The subject of data set [8] is souris. Description: Motility reduced by habituation to the enclosure. Here is the method: Après 18 h de séjour dans les actimètres, les souris (6 par dose, 12 témoins) reçoivent le CRL 40914. Elles sont aussitôt replacées dans leurs enceintes respectives et, une demi-heure plus tard, on enregistre leur motilité pendant 30 min.
as §1

In data set [9] the test system is souris. The data set can be described thus: Four plates test, traction and electroshock. As to conditions: 32 mg/kg et 128 mg/kg.
Source text: Le test est pratiqué sur des lots de 10 souris, une demi-heure après l'administration de CRL 40914.
as §1

In data set [10] the test system is souris. Description: Global behaviour and reactivity, mouse. The protocol: (§2) On a résumé ci-après les résultats des essais qui ont été entrepris chez l'animal avec le CRL 40914, ce produit étant administré, sauf indications contraires, en solution dans l'eau (à pH 5) par voie intrapéritonéale sous un volume de 20 ml/kg chez la souris mâle et de 5 ml/kg chez le rat mâle.
(§3) Des lots de 3 animaux sont observés avant, puis 15 min, 30 min, 1 h, 2 h, 3 h et 24 h après l'administration de CRL 40914. On observe ce qui suit:
as §1

For data set [11], the system named is souris. Description: Action on spontaneous motility (actimeter). As to conditions: 32 mg/kg et 128 mg/kg. Here is the method:
Une demi-heure après avoir reçu le CRL 40914, des souris sont placées en actimètre où leur motilité est enregistrée pendant 30 min.
as §1

Data set [12] in a line: Acute toxicity by the i.p. route (DL-0, DL-50). As to conditions: mouse, in vivo, ip; souris mâle, voie i.p. Here is the method: as §2
(§4) Chez la souris mâle, la DL-0 (dose maximale non mortelle) par voie i.p. est supérieure à 128 mg/kg.
as §1
(§5) Chez la souris mâle, la DL-0 (dose maximale non mortelle) par voie i.p. est supérieure à 256 mg/kg, et la DL-50 par voie i.p. est de l'ordre de 500 mg/kg environ.

The test system of data set [13] is souris mâle. Description: Acute toxicity by the i.p. route (DL-0, DL-50). As to conditions: voie i.p. The protocol: as §2, §4, §1, §5
The test system of data set [14] is rats. The data set can be described thus: Interaction with amphetamine. As to conditions: rat. Here is the method:
L'amphétamine (2 mg/kg) est injectée par voie intrapéritonéale à des lots de 12 rats, une demi-heure après l'administration de CRL 40914.
as §1

Data set [15] deals with souris. The data set can be described thus: Motility reduced by hypoxic aggression. Here is the method: Une demi-heure après avoir reçu le CRL 40914, les souris (10 par dose, 20 témoins) sont soumises à une anoxie hypobare aiguë [dépression de 600 mm Hg (soit environ 8 x10^4 pascals) en 90 s puis détente de 45 s] puis elles sont placées en actimètre où leur motilité est enregistrée pendant 10min.
as §1

Data set [16] deals with rat. The data set can be described thus: Global behaviour and reactivity, rat. As to conditions: rat. The protocol:
as §2, §3, §1

Like-named read-outs stand apart in the source and are kept apart here.

With `COC(=O)[C@@H]1[C@H]2C[C@H]3c4[nH]c5ccccc5c4CCN3C[C@@H]2CC[C@@H]1O` [yohimbine, reference compound], the température rectale result in data set [1] is listed as “ne modifie pas la température rectale”. Moreover, the “activité motrice spontanée” value in data set [2] is listed as “ne modifie pas l'activité motrice spontanée”.

With `Cc1ccccc1C1CN(C)CCO1` (stereo not shown) [CRL 40915, Chlorhydratede 2-o-tolyl-4-méthyl-morpholine], in data set [3], the “apparition des convulsions et de la mort (anoxie asphyxique)” value is “retarde l'apparition des convulsions et de la mort”. The “hypothermie réserpinique” value in data set [4] is reported as “aggrevation de I-hypothermie réserpinique”. Further, in [4], the “ptosis réserpinique” value is given as “le ptosis déjà maximal n'est pas modifié”. Moreover, in [5] (32 mg/kg et 128 mg/kg), the “action hypothermisante de l'apomorphine” value is recorded as “s'oppose aux doses de 32 mg/kg et 128 mg/kg à l'action hypothermisante de l'apomorphine”. Also, in data set [5] (128 mg/kg, faible dose (1 mg/kg) d'apomorphine), the “indices de verticalisation et de stéréotypies (apomorphine)” value was “diminue les indices de verticalisation et de stéréotypies”. The “effet intrinsèque sur la température” value in data set [5] (doses voisines de 32 mg/kg) and in data set [7] (32 mg/kg et 128 mg/kg) was “effet hypothermisant intrinsèque” each time. The “stéréotypies produites par l'apomorphine” value in [6] is “ne modifie pas les stéréotypies produites par l'apomorphine”. In addition, in data set [7] (32 mg/kg et 128 mg/kg), the “hypothermie induite par l'oxotrémorine” value is “s'oppose à l'hypothermie induite par l'oxotrémorine”. Further, in data set [7] (128 mg/kg), the “tremblements induits par l'oxotrémorine” value is “semblent partiellement antagonisés”. For the same molecule, the “signes de stimulation cholinergique périphérique provoqués par l'oxotrémorine” value in data set [7] (oxotrémorine 0,5 mg/kg i.p.) was “laisse inchangés les signes de stimulation cholinergique périphérique”. Besides, in data set [8], the “activité motrice chez la souris habituée à son enceinte” value is “ne provoque pas de reprise de l'activité”. The “déficit moteur (traction)” value in [9] was “ne provoque pas de déficit moteur majeur”. For the same molecule, the “effets convulsivants de l'électrochoc” value in data set [9] was “s'oppose aux effets convulsivants de l'électrochoc”. Besides, the “nombre de passages punis (test des quatre plaques)” value in data set [9] was “diminue le nombre de passages punis”. The symptômes result in data set [10] (2 mg/kg i.p.) is reported as “pas de symptômes nets”. The sédation entry in [10] (8 mg/kg i.p.) is reported as “sédation fugace pendant 15 à 30 minutes”; in data set [10] (32 mg/kg i.p.) it was “sédation pendant 1 heure”; in data set [10] (128 mg/kg i.p.) it was “sédation avec diminution de la réaction d'agressivité pendant 2 heures”; in data set [16] (4 mg/kg i.p.), “sédation pendant 30 minutes”; in [16] (16 mg/kg i.p.) it was “sédation pendant 1 à 2 heures”; in [16] (64 mg/kg i.p.), “sédation pendant 1 à 2 heures”. For the same molecule, the hypothermie in data set [10] (8 mg/kg i.p., pendant 1 heure) is -1,5 °C; in [10] (32 mg/kg i.p., pendant 1 heure) it was -2,8 °C; in [10] (128 mg/kg i.p., pendant 2 heures) it was -2,9 °C; in data set [16] (64 mg/kg i.p., pendant 30 à 60 minutes) it was -1,9 °C. Moreover, the convulsions result in data set [10] (128 mg/kg i.p.) was “convulsions pendant 15 minutes”. The hyporéactivité au toucher entry in data set [10] (128 mg/kg i.p.) is on record as “hyporéactivité au toucher pendant 15 minutes”. In data set [10] (128 mg/kg i.p.), the salivation et lacrymation result is recorded as “salivation et lacrymation pendant 30 minutes”. Moreover, the “activité motrice spontanée” value in data set [11] is reported as “diminution importante de l'activité motrice spontanée”. The same molecule showed an LD50 in [12] of approximately 500 mg/kg. In addition, in data set [13], the “DL-0 (dose maximale non mortelle)” value was more than 256 mg/kg. In addition, in data set [14], the “stéréotypies amphétaminiques” value is recorded as “ne sont pas modifiées”. Further, the figures for the “récupération motrice après agression hypoxique” value in data set [15] and in data set [15] (32 mg/kg et 128 mg/kg) were “n'entraîne pas d'amélioration de la récupération motrice” and “aggravation”, respectively. For the same molecule, the signes entry in data set [16] (1 mg/kg i.p.) is given as “pas de signes particuliers”. For the same molecule, the mydriase result in data set [16] (4 mg/kg i.p.) is reported as “mydriase modérée pendant 30 minutes”; in [16] (16 mg/kg i.p.), “mydriase pendant 30 à 60 minutes”; in [16] (64 mg/kg i.p.), “mydriase pendant 1 heure”. Also, the figures for the piloérection result in data set [16] (16 mg/kg i.p.) and in data set [16] (64 mg/kg i.p.) were “piloérection” and “piloérection pendant 1 heure”, respectively.
